Patent US9149476B2, “Thiochromene derivatives as HIF hydroxylase inhibitors” (FibroGen, Inc., priority 2008, dated 2015)
Where a name gives a salt, the structure may show the parent alone.

Biological target: T1, HIF-PH2 (EGLN1) (Homo sapiens, UniProt Q9GZT9)
T1 construct: made in house; host or cells: insect Hi5 cells
Assay: HIF-PH assay (14CO2 capture, peptide-dependent turnover)
Type: biochemical
Settings: for inhibition at 50 µM: compound concentration 50 μM; for inhibition at 67 µM: compound concentration 67 μM; for inhibition at 12.5 µM: compound concentration 12.5 μM
Text: Ketoglutaric acid α-[1-^14C]-sodium salt, alpha-ketoglutaric acid sodium salt, and HPLC purified peptide may be obtained from commercial sources, e.g., Perkin-Elmer (Wellesley Mass.), Sigma-Aldrich, and SynPep Corp. (Dublin Calif.), respectively. Peptides for use in the assay may be fragments of HIFα as described above or as disclosed in International Publication WO 2005/118836, incorporated by reference herein. For example, a HIF peptide for use in the HIF-PH assay is [methoxycoumarin]-DLDLEALAPYIPADDDFQL-amide (SEQ ID NO:2). HIF-PH, e.g., HIF-PH2 (EGLN1), can be expressed in, e.g., insect Hi5 cells, and partially purified, e.g., through a SP ion exchange chromatography column. Enzyme activity is determined by capturing ^14CO2 using an assay described by Kivirikko and Myllyla (1982, Methods Enzymol. 82:245-304). Assay reactions contain 50 mM HEPES (pH 7.4), 100 μM α-ketoglutaric acid sodium salt, 0.30 μCi/mL ketoglutaric acid α-[1-^14C]-sodium salt, 40 μM FeSO4, 1 mM ascorbate, 1541.8 units/mL Catalase, with or without 50 μM peptide substrate and various concentrations of compound of the invention. Reactions are initiated by addition of HIF-PH enzyme.
The peptide-dependent percent turnover is calculated by subtracting percent turnover in the absence of peptide from percent turnover in the presence of substrate peptide. Percent inhibition and IC50 are calculated using peptide-dependent percent turnover at given inhibitor concentrations. Calculation of IC50 values for each inhibitor is conducted using GraFit software (Erithacus Software Ltd., Surrey UK).
Representative compounds of the invention were analyzed using the HIF-PH assay described above. Table 1 presents enzyme inhibition data for exemplary compounds against HIF-PH2, a representative HIF prolyl hydroxylase. By inhibiting HIF prolyl hydroxylase, compounds of the invention stabilize HIFα, which then combines with HIFβ to form an active transcription factor that increases expression of various genes involved in numerous beneficial cellular processes.

T1 sequence (Q9GZT9 whole entry): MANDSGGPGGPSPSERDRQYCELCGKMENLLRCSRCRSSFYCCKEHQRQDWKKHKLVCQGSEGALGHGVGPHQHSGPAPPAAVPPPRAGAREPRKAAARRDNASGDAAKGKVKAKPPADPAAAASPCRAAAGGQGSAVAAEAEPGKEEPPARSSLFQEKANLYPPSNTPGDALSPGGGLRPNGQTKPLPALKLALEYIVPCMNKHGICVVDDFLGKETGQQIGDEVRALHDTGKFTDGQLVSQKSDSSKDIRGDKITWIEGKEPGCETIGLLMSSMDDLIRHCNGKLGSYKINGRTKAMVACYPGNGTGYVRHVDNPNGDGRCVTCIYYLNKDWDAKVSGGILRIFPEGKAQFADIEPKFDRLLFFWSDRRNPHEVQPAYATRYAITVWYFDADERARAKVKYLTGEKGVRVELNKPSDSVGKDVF

inhibition at 50 µM [%] | inhibition at 67 µM [%] | Structure (SMILES) | further results
98.5 |  | O=C(O)CNC(=O)c1c(O)c2c(F)cccc2sc1=O [Example 52, [(5-Fluoro-4-hydroxy-2-oxo-2H-thiochromene-3-carbonyl)-amino]-acetic acid] | 
99 |  | O=C(O)CNC(=O)c1c(O)c2ccc(C3CC3)cc2sc1=O [Example 53, [(7-Cyclopropyl-4-hydroxy-2-oxo-2H-thiochromene-3-carbonyl)-amino]-acetic acid] | 
 | 98.4 | C[C@H](NC(=O)c1c(O)c2ccc(-c3cccc(F)c3)cc2sc1=O)C(=O)O [Example 31, 2-(S)-{[7-(3-Fluoro-phenyl)-4-hydroxy-2-oxo-2H-thiochromene-3-carbonyl]-amino}-propionic acid] | 
100 |  | O=C(O)CNC(=O)c1c(O)c2cc(NC(=O)c3ccccc3)ccc2sc1=O [Example 41, [(6-Benzoylamino-4-hydroxy-2-oxo-2H-thiochromene-3-carbonyl)-amino]-acetic acid] | 
 |  | O=C(O)CNC(=O)c1c(O)c2ccccc2sc1=O [Example 3, [(4-Hydroxy-2-oxo-2H-thiochromene-3-carbonyl)-amino]-acetic acid] | inhibition at 200 µM (compound concentration 200 μM): 99.2%
 | 100 | O=C(O)CNC(=O)c1c(O)c2cc(Br)ccc2sc1=O [Example 27, [(6-Bromo-4-hydroxy-2-oxo-2H-thiochromene-3-carbonyl)-amino]-acetic acid] | 
94.5 |  | C[C@H](NC(=O)c1c(O)c2ccc(-c3cc(C(F)(F)F)nn3C)cc2sc1=O)C(=O)O [Example 55, 2-(S)-{[4-Hydroxy-7-(2-methyl-5-trifluoromethyl-2H-pyrazol-3-yl)-2-oxo-2H-thiochromene-3-carbonyl]-amino}-propionic acid] | 
 | 94.7 | COc1ccccc1-c1ccc2sc(=O)c(C(=O)NCC(=O)O)c(O)c2c1 [Example 39, {[4-Hydroxy-6-(2-methoxy-phenyl)-2-oxo-2H-thiochromene-3-carbonyl]-amino}-acetic acid] | 
95.4 |  | O=C(O)CNC(=O)c1c(O)c2ccc(-c3cncc(F)c3)cc2sc1=O [Example 16, {[7-(5-Fluoro-pyridin-3-yl)-4-hydroxy-2-oxo-2H-thiochromene-3-carbonyl]-amino}-acetic acid] | 
100 |  | C[C@H](NC(=O)c1c(O)c2ccc(Cl)cc2sc1=O)C(=O)O [Example 61, 2-(S)-[(7-Chloro-4-hydroxy-2-oxo-2H-thiochromene-3-carbonyl)-amino]-propionic acid] | 
99.5 |  | O=C(O)CNC(=O)c1c(O)c2ccc(-c3cncnc3)cc2sc1=O [Example 14, [(4-Hydroxy-2-oxo-7-pyrimidin-5-yl-2H-thiochromene-3-carbonyl)-amino]-acetic acid] | 
87.9 |  | O=C(O)CNC(=O)c1c(O)c2ccc(-c3ccc4ccccc4c3)cc2sc1=O [Example 18, [(4-Hydroxy-7-naphthalen-2-yl-2-oxo-2H-thiochromene-3-carbonyl)-amino]-acetic acid] | 
95.2 |  | O=C(O)CNC(=O)c1c(O)c2ccc(-c3cccnc3)cc2sc1=O [Example 15, [(4-Hydroxy-2-oxo-7-pyridin-3-yl-2H-thiochromene-3-carbonyl)-amino]-acetic acid, sodium salt] | 
 | 99.7 | O=C(O)CNC(=O)c1c(O)c2cc(-c3ccccc3Cl)ccc2sc1=O [Example 36, {[6-(2-Chloro-phenyl)-4-hydroxy-2-oxo-2H-thiochromene-3-carbonyl]-amino}-acetic acid] | 
 |  | CCCCOc1ccc2c(O)c(C(=O)NCC(=O)O)c(=O)sc2c1 [Example 26, [(7-Butoxy-4-hydroxy-2-oxo-2H-thiochromene-3-carbonyl)-amino]-acetic acid] | inhibition at 12.5 µM: 96.2%
 | 96.6 | O=C(O)CNC(=O)c1c(O)c2cc(-c3ccc(F)cc3)ccc2sc1=O [Example 38, {[6-(4-Fluoro-phenyl)-4-hydroxy-2-oxo-2H-thiochromene-3-carbonyl]-amino}-acetic acid] | 
97.2 |  | COc1ccccc1-c1ccc2c(O)c(C(=O)NCC(=O)O)c(=O)sc2c1 [Example 9, {[4-Hydroxy-7-(2-methoxy-phenyl)-2-oxo-2H-thiochromene-3-carbonyl]-amino}-acetic acid] | 
100 |  | O=C(O)CNC(=O)c1c(O)c2cc(Cl)cc(-c3cc(C(F)(F)F)cc(C(F)(F)F)c3)c2sc1=O [Example 43, {[8-(3,5-Bis-trifluoromethyl-phenyl)-6-chloro-4-hydroxy-2-oxo-2H-thiochromene-3-carbonyl]-amino}-acetic acid] | 
 | 96.4 | O=C(O)CNC(=O)c1c(O)c2ccc(-c3cc(C(F)(F)F)cc(C(F)(F)F)c3)cc2sc1=O [Example 29, {[7-(3,5-Bis-trifluoromethyl-phenyl)-4-hydroxy-2-oxo-2H-thiochromene-3-carbonyl]-amino}-acetic acid] | 
99.7 |  | O=C(O)CNC(=O)c1c(O)c2ccc(-c3ccc(F)cc3)cc2sc1=O [Example 13, {[7-(4-Fluoro-phenyl)-4-hydroxy-2-oxo-2H-thiochromene-3-carbonyl]-amino}-acetic acid] | 
 | 99.1 | COc1ccc(-c2ccc3sc(=O)c(C(=O)NCC(=O)O)c(O)c3c2)cc1 [Example 35, {[4-Hydroxy-6-(4-methoxy-phenyl)-2-oxo-2H-thiochromene-3-carbonyl]-amino}-acetic acid] | 
95.8 |  | O=C(O)CNC(=O)c1c(O)c2ccc(-c3ccc(C(F)(F)F)cc3)cc2sc1=O [Example 11, {[4-Hydroxy-2-oxo-7-(4-trifluoromethyl-phenyl)-2H-thiochromene-3-carbonyl]-amino}-acetic acid] | 
 | 93.2 | O=C(O)CNC(=O)c1c(O)c2ccc(-c3ccccc3C(F)(F)F)cc2sc1=O [Example 32, {[4-Hydroxy-2-oxo-7-(2-trifluoromethyl-phenyl)-2H-thiochromene-3-carbonyl]-amino}-acetic acid] | 
 |  | O=C(O)CNC(=O)c1c(O)c2ccc(Br)cc2sc1=O [Example 5, [(7-bromo-4-hydroxy-2-oxo-2H-thiochromene-3-carbonyl)-amino]-acetic acid] | inhibition at 12.5 µM: 97.6%
100 |  | O=C(O)CNC(=O)c1c(O)c2cc(OCc3ccccc3)ccc2sc1=O [Example 62, [(6-Benzyloxy-4-hydroxy-2-oxo-2H-thiochromene-3-carbonyl)-amino]-acetic acid] | 
 | 98.4 | O=C(O)CNC(=O)c1c(O)c2cc(-c3cccc(F)c3)ccc2sc1=O [Example 37, {[6-(3-Fluoro-phenyl)-4-hydroxy-2-oxo-2H-thiochromene-3-carbonyl]-amino}-acetic acid] | 
